Experiments:
[1] = Liquid; for speed of sound: Sing-around technique in a fixed-path interferometer; for mass density: Vibrating tube method
[2] = xn = mol fraction of the nth substance listed; settings: 101 kPa, Liquid, x2 = 0; for speed of sound: Sing-around technique in a fixed-path interferometer; for mass density: Vibrating tube method

CCCC[N+]1(C)CCCC1.O=S(=O)([O-])C(F)(F)F [1-butyl-1-methylpyrrolidinium trifluoromethanesulfonate]
[1], 101.33 kPa
Settings	mass density [kg/m3]	speed of sound [m/s]
278.15 K	1267.23	1513.5
288.15 K	1259.74	1486.1
298.15 K	1252.26	1461.4
308.15 K	1245.09	1437.8
318.15 K	1237.94	1414.9
328.15 K	1230.81	1392.7
338.15 K	1223.73	1371.1

O [water] + CCCCn1cc[n+](C)c1.O=S(=O)([O-])C(F)(F)F
[2]
Settings	mass density [kg/m3]	speed of sound [m/s]
318.15 K	–	1536.8
328.15 K	985.7	1547.7
338.15 K	980.56	1553.6

O [water]
[1], 101 kPa
Settings	mass density [kg/m3]	speed of sound [m/s]
278.15 K	999.99	–
318.15 K	–	1536.8
328.15 K	985.7	1547.7
338.15 K	980.56	1553.6

O [water] + CCCC[n+]1ccn(CC)c1.O=S(=O)([O-])C(F)(F)F
[2]
Settings	mass density [kg/m3]	speed of sound [m/s]
278.15 K	999.99	–
318.15 K	–	1536.8
328.15 K	985.7	1547.7
338.15 K	980.56	1553.6

O [water] + CCCC[N+]1(C)CCCC1.O=S(=O)([O-])C(F)(F)F
[2]
Settings	mass density [kg/m3]	speed of sound [m/s]
278.15 K	999.99	–
318.15 K	–	1536.8
328.15 K	985.7	1547.7
338.15 K	980.56	1553.6

CCCCn1cc[n+](C)c1.O=S(=O)([O-])C(F)(F)F [1-butyl-3-methylimidazolium trifluoromethanesulfonate]
[1], 101.33 kPa
Settings	mass density [kg/m3]	speed of sound [m/s]
288.15 K	1304.56	1416
298.15 K	1296.67	1393
308.15 K	1288.78	1370.7
318.15 K	1280.95	1349
328.15 K	1273.16	1327.8
338.15 K	1265.44	1307

CCCC[n+]1ccn(CC)c1.O=S(=O)([O-])C(F)(F)F
[1], 101.33 kPa
Settings	mass density [kg/m3]	speed of sound [m/s]
278.15 K	1278.02	1420.6
288.15 K	1269.97	1396.3
298.15 K	1262.21	1373.1
308.15 K	1254.44	1350.6
318.15 K	1246.71	1328.6
328.15 K	1239.01	1307.1
338.15 K	1231.35	1286.1

— the NIST ThermoML archive (doi:10.1021/je300134c)
